Source: patent publication US20100331384A1, “GUANIDINE BASED COMPOUNDS” (UNIVERSIDAD DEL PAIS VASCO/EUSKAL HERRIKO UNIBERTSITATEA, priority 2007, published 2010)
“Also recorded” adds a separate entry of the source.

Tests used:
α2-ARs [1] = target: T1, α2-ARs (Homo sapiens, UniProt P08913); experiment: [3H]RX821002 competition binding assay in human brain PFC membranes; conditions: human brain tissue in vitro
T1 construct: other: human brain tissue in vitro; other: stimulation of [35S]GTPγS b

α2-ARs [2] = target: T1, α2-ARs; experiment: [35S]GTPγS binding functional assay, compounds alone; type: biochemical; conditions: for agonistic or antagonistic properties in [35S]GTPγS experiments: human brain PFC; for stimulation of [35S]GTPγS binding by the compound on its own: human brain PFC membranes; for Emax: read-out: Emax (%), percentage efficacy relative to UK14304
Description: The [^35S]GTPγs binding assay constitutes a functional measure of the interaction of the receptor and the G-protein and is a useful tool to distinguish between agonists (increasing the nucleotide binding), inverse agonists (decreasing the nucleotide binding), and neutral antagonists (not affecting the nucleotide binding) of GPCRs.^20 Experiments were performed in low-affinity receptor conditions for agonists (presence of guanine nucleotides and sodium in the medium), and therefore, typical potency values are two-three logarithmic units lower than affinity values obtained in radioligand receptor binding experiments.^20
(§1) Preparation of membranes. Neural membranes (P2 fractions) were prepared from the PFC of human brains obtained at autopsy in the Instituto Vasco de Medicina Legal, Bilbao, Spain. Postmortem human brain samples of each subject (˜1 g) were homogenized using a Teflon-glass grinder (10 up-and-down strokes at 1500 rpm) in 30 volumes of homogenization buffer (1 mM MgCl2, and 5 mM Tris-HCl, pH 7.4) supplemented with 0.25 M sucrose. The crude homogenate was centrifuged for 5 min at 1000×g ([…]) and the supernatant was centrifuged again for 10 min at 40000×g (4° C.). The resultant pellet was washed twice in 20 volumes of homogenization buffer and recentrifuged in similar conditions. Aliquots of 1 mg protein were stored at −70° C. until assay.
[^35S]GTPγs binding assays. The incubation buffer for measuring [^35S]GTPγs binding to brain membranes contained, in a total volume of 500 μL, 1 mM EGTA, 3 mM MgCl2, 100 mM NaCl, […], 50 mM Tris-HCl at pH 7.4 and 0.5 nM [^35S]GTPγs. Proteins aliquots were thawed and re-suspended in the same buffer. The incubation was started by addition of the membrane suspension (40 μg of membrane proteins) to the previous mixture and was performed at 30° C. for 120 min with shaking. In order to evaluate the influence of the compounds on [^35S]GTPγs binding, 8 concentrations (10^−10 to 10^−3M) of the different compounds were added to the assay. Incubations were terminated by adding 3 mL of ice-cold re-suspension buffer followed by rapid filtration through Whatman GF/C filters pre-soaked in the same buffer. The filters were rinsed twice with 3 mL of ice-cold re-suspension buffer, transferred to vials containing 5 mL of OptiPhase HiSafe II cocktail (Wallac, UK) and the radioactivity trapped was determined by liquid scintillation spectrometry (Packard 2200CA). […] Non-specific binding of the radioligand was defined as the remaining [^35S]GTPγs binding in the presence of 10 μM unlabelled GTPγs.

mice = experiment: Tail suspension test; type: in vivo; conditions: compared with saline control, FIG. 4
Source text: The tail suspension test as illustrated in FIG. 4 has become one of the most widely used models for assessing antidepressant-like activity in mice. The test is based on the fact that animals subjected to the short-term, inescapable stress of being suspended by their tail, will develop an immobile posture. Antidepressant medications encourage the animal to struggle and promote the occurrence of escape-related behaviour.

[3] = tested on: extracellular NA levels in the PFC; experiment: In vivo microdialysis in the PFC, extracellular NA; parameters: species or system male Sprague Dawley rats; conditions: for Emax of increase in extracellular NA levels: local administration by reverse dialysis 1-100 μM in PFC, percentage of basal values
Source text: Intracerebral microdialysis is a neurochemical technique that has been applied extensively in pharmacological studies aimed at investigating the effect of different drugs on brain neurotransmission. This technique allows one to collect a representative concentration of different neurotransmitters of the area where the probe is implanted while the animals are awake and freely moving.^21
Most antidepressant drugs are able to increase NA extracellular concentrations in different brain areas as the PFC, an area implicated in depression disease. Considering that α2-ARs exert a tonic inhibitory action on NA release from the noradrenergic terminals we assessed the ability of these two new compounds to increase NA extracellular concentration in this area. First, we tested the drugs when administered locally in order to confirm their antagonistic activity over α2-ARs in vivo.
A second step was to study the effect of these compounds increasing NA extracellular concentrations when administered systemically.
In Vivo Microdialysis assays. The experiments were carried out in male Sprague Dawley rats weighing between 250 g and 300 g. At the beginning of the experiments, animals were anaesthetized with chloral hydrate (400 mg/kg i.p.) and a microdialysis probe was implanted by stereotaxic surgery into prefrontal cortex (PFC) brain area. The coordinates selected for the PFC were as follows: AP (anterior to bregma) +2.8 mm, L (lateral from the mid-sagittal suture) +1 mm, DV (ventral from the dura surface) −5 mm.^22 After 24 hours for animal recovery, perfusion fluid (artificial cerebrospinal fluid) is pumped through the probe at a flow rate of 1 μl/min. In the semipermeable membrane, that is the critical side of the probe and is placed on the selected area, molecules flow into and out the cannulae by diffusion. Therefore, microdialysis technique allows local administration of substrates dissolved in the perfusion fluids.
When drugs were locally administered, they were dissolved in a CSF and applied during 70 min via dialysis probe implanted in the PFC in increasing concentrations of 1, 10 and 100 μM. The compounds systemically administered were dissolved in saline and injected intraperitoneally.
Samples, collected with the microdialysis procedure (every 35 min), were analyzed by HPLC with electrochemical detection. NA concentrations were monitorizated by an amperometric detector (Hewlett-Packard model 1049A) at an oxidizing potential of +650 mV. The movil phase (12 mM citric acid, 1 mM EDTA, 0.7 mM octylsodio sulfate, pH 5 and 10% methanol) was filtered, degassed (Hewlett-Packard model 1100 degasser) and delivered at a flow rate of 0.2 ml/min by a Hewlett-Packard model 1100 pump. Stationary phase was a column of 150×2.1 mm (Thermo Electron Corporation, U.S.A.). Samples (injection volume 37 μl) were injected and NA analized in a run time of 10 min. Solution of standard noradrenaline was injected every working day to create a new calibration table.
The mean values of the first three samples before substrate administration were considered as 100% basal value. All measures of extracellular NA concentrations are expressed as percentage of the baseline value±s.e.mean. One way analysis of variance (ANOVA) for control group or two way ANOVA between control and each treated group was assessed for statistical analysis. After the experiments, rats were sacrificed with an overdose of chloral hydrate and the brains were dissected to check the correct implantation of the probe.

α2-ARs [4] = conditions: starred compounds, affinity reported in reference 9 by the same group; cited from earlier work
α2-ARs [5] = experiment: [3H]RX821002 competition binding assay in human brain PFC membranes; conditions: 31a vs 10b, 31b vs 17b
Description: as §1
[^3H]RX821002 binding assays. […] Incubations were terminated by diluting the samples with 5 ml of ice-cold Tris incubation buffer (4° C.). Membrane bound [^3H]RX821002 was separated by vacuum filtration through Whatman GF/C glass fibre filters. Then, the filters were rinsed twice with 5 ml of incubation buffer and transferred to minivials containing 3 ml of OptiPhase “HiSafe” II cocktail and counted for radioactivity by liquid scintillation spectrometry. Specific binding was determined and plotted as a function of the compound concentration. Non-specific binding was determined in the presence of adrenaline (10^−5 M).
Analysis of binding data. Analysis of competition experiments to obtain the inhibition constant (Ki) were performed by nonlinear regression using the GraphPad Prism program. All experiments were analysed assuming a one-site model of radioligand binding. Ki values were normalized to pKi values.

α2-ARs [6] = conditions: previously described, reference 9; cited from earlier work

T1 sequence (P08913 whole entry): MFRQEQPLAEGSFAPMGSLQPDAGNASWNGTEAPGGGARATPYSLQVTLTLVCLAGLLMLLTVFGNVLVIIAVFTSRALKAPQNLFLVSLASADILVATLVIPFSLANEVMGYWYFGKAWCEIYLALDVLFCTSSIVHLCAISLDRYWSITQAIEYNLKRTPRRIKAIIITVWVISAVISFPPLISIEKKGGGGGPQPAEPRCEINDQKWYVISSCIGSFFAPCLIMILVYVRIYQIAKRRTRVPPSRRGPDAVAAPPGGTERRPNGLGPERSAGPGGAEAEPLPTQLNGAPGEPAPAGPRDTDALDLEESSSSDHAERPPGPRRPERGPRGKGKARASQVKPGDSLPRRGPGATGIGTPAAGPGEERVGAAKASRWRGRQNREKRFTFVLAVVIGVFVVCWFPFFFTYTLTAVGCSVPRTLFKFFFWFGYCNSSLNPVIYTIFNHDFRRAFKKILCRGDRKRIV

## c1cc(NC2=NCCN2)ccc1CCc1ccc(NC2=NCCN2)cc1 [Compound 20b, 4,4′-di(2-imidazolidinylimino)-1,2-diphenylethane]
α2-ARs [1]
  affinity towards the α2-ARs compared with references: within the range of those of Idazoxan and/or Clonidine
α2-ARs [2]
  agonistic or antagonistic properties in [35S]GTPγS experiments: antagonistic properties
  stimulation of [35S]GTPγS binding by the compound on its own: did not stimulate binding
mice
  immobility period: slightly shorter immobility period than the saline control
[3]; deduced from NA increase after systemic administration
  ability to cross the blood brain barrier (BBB): able to cross the blood brain barrier
[3]
  Emax of increase in extracellular NA levels: 255±76%
[3]; local and systemic administration, rats
  α2-AR antagonist properties in vivo: α2-AR antagonist properties in vivo
[3]; systemic (intraperitoneal) administration, evaluated in PFC
  increase of NA extracellular concentration, maximal effect: 156±35%

## N=C(N)Nc1ccc2c(c1)OCCO2 [Compound 31b]
α2-ARs [4]
  affinity values (pKi) for the α2-ARs: 8.21
α2-ARs [5]
  pKi higher than methylene containing counterpart: 1.10 logarithmic units
α2-ARs [6]
  agonist or antagonist nature at α2-ARs, previously reported: agonist

## c1cc2c(cc1NC1=NCCN1)Cc1ccc(NC3=NCCN3)cc1C2 [Compound 18b, 2,6-di(2-imidazolidinylimino)-9,10-dihydroanthracene]
α2-ARs [1]
  affinity towards the α2-ARs compared with references: within the range of those of Idazoxan and/or Clonidine
α2-ARs [2]
  agonistic or antagonistic properties in [35S]GTPγS experiments: agonistic properties
  stimulation of [35S]GTPγS binding by the compound on its own: did not stimulate binding

## c1ccc(Oc2ccc(NC3=NCCN3)cc2)cc1 [Compound 26a]
α2-ARs [4]
  affinity values (pKi) for the α2-ARs: 6.58

## N=C(N)Nc1ccc(Sc2ccccc2)cc1 [Compound 27b]
α2-ARs [4]
  affinity values (pKi) for the α2-ARs: 6.30

## N=C(N)Nc1ccc(Nc2ccccc2)cc1 [Compound 25b]
α2-ARs [4]
  affinity values (pKi) for the α2-ARs: 6.83

## N=C(N)Nc1ccc(Oc2ccccc2)cc1 [Compound 26b]
α2-ARs [4]
  affinity values (pKi) for the α2-ARs: 6.05

## COc1ccc(NC(=N)N)cc1 [Compound 28b]
α2-ARs [4]
  affinity values (pKi) for the α2-ARs: 6.39

## c1ccc(Cc2ccc(NC3=NCCN3)cc2)cc1 [Compound 4b, 1-(2-imidazolidinyliminio)-4-benzylbenzene]
α2-ARs [2]
  Emax: 111%

## COc1ccc(NC2=NCCN2)cc1 [Compound 28a]
α2-ARs [4]
  affinity values (pKi) for the α2-ARs: 7.77

## c1ccc(Nc2ccc(NC3=NCCN3)cc2)cc1 [Compound 25a]
α2-ARs [4]
  affinity values (pKi) for the α2-ARs: 6.56

## Cc1ccc(NC2=NCCN2)cc1C [Compound 8b, 1-(2-imidazolidinylimino)-3,4-dimethylbenzene]
α2-ARs [1]
  affinity towards the α2-ARs compared with references: within the range of those of Idazoxan and/or Clonidine
α2-ARs [2]
  agonistic or antagonistic properties in [35S]GTPγS experiments: agonistic properties
  stimulation of [35S]GTPγS binding by the compound on its own: stimulated binding
  Emax: 89%

## N=C(N)Nc1ccc(N)cc1 [Compound 30b]
α2-ARs [4]
  affinity values (pKi) for the α2-ARs: 5.58

## N=C(N)Nc1ccc2c(c1)OCO2 [Compound 3b]
α2-ARs [4]
  affinity values (pKi) for the α2-ARs: 6.40

## CSc1ccc(NC2=NCCN2)cc1 [Compound 29a]
α2-ARs [4]
  affinity values (pKi) for the α2-ARs: 7.07

## Nc1ccc(NC2=NCCN2)cc1 [Compound 30a]
α2-ARs [4]
  affinity values (pKi) for the α2-ARs: 6.92

## c1ccc(Sc2ccc(NC3=NCCN3)cc2)cc1 [Compound 27a]
α2-ARs [4]
  affinity values (pKi) for the α2-ARs: 6.62

## Cc1ccc(NC2=NCCN2)cc1 [Compound 6b, 1-(2-imidazolidinylimino)-4-methylbenzene]
α2-ARs [1]
  affinity towards the α2-ARs compared with references: within the range of those of Idazoxan and/or Clonidine
α2-ARs [2]
  agonistic or antagonistic properties in [35S]GTPγS experiments: agonistic properties
  stimulation of [35S]GTPγS binding by the compound on its own: stimulated binding
  Emax: 97%

## c1cc2c(cc1NC1=NCCN1)OCO2 [Compound 3]
α2-ARs [4]
  affinity values (pKi) for the α2-ARs: 7.33
α2-ARs [6]
  agonist or antagonist nature at α2-ARs, previously reported: α2-AR antagonists; also recorded: antagonist

## c1cc2c(cc1NC1=NCCN1)CCCC2 [Compound 10b, imidazolidin-2-ylidene-(5,6,7,8-tetrahydro-naphthalen-2-yl)-amine]
α2-ARs [1]
  affinity towards the α2-ARs compared with references: within the range of those of Idazoxan and/or Clonidine
α2-ARs [2]
  agonistic or antagonistic properties in [35S]GTPγS experiments: agonistic properties
  stimulation of [35S]GTPγS binding by the compound on its own: stimulated binding
  Emax: 100%

## c1ccc2c(c1)OCC(C1=NCCN1)O2 (stereo not drawn) [Idazoxan, reference compound]
[3]
  Emax of increase in extracellular NA levels: 235±42%

## c1cc2c(cc1NC1=NCCN1)OCCO2 [Compound 31a]
α2-ARs [4]
  affinity values (pKi) for the α2-ARs: 7.85
α2-ARs [5]
  pKi higher than methylene containing counterpart: 0.52 logarithmic units

## N=C(N)Nc1ccc2c(c1)Cc1ccc(NC(=N)N)cc1C2 [Compound 21b, 2,6-diguanidino-9,10-dihydroanthracene]
α2-ARs [1]
  affinity towards the α2-ARs compared with references: within the range of those of Idazoxan and/or Clonidine
α2-ARs [2]
  agonistic or antagonistic properties in [35S]GTPγS experiments: agonistic properties
  stimulation of [35S]GTPγS binding by the compound on its own: did not stimulate binding

## CSc1ccc(NC(=N)N)cc1 [Compound 29b]
α2-ARs [4]
  affinity values (pKi) for the α2-ARs: 6.40
